# Test results reported in a melting point compilation (Tetko et al.; mined from patent text by program, amines drawn as free bases though some values may be those of a salt).
row,Structure (SMILES),melting point
1,O=C1c2c(F)c(F)c(F)c(F)c2C(=O)N1c1c[nH]c(=O)[nH]c1=O,350 to 355 °C
2,Oc1cccc(COC=C2C3CC4CC(C3)CC2C4)c1,133 to 134 °C
3,CCOC(=O)NC(=S)C1=C(N2CCOCC2)CCC1,114 to 118 °C
4,COCC(C)(C)c1cc(N)no1,96 to 99 °C
5,COCCOc1ccnc(NCc2ccccc2)c1[N+](=O)[O-],81 to 83 °C
6,O=C1NCN(c2ccc(F)cc2)C12CCN(CCCn1c(=O)[nH]c3ccccc31)CC2,215 °C
7,COc1ccc(C(=O)C=Cc2ccc(N(C)C)cc2)c(OC)c1OC,88 to 89 °C
8,CN(CCCCCCO)c1ccc(C=Cc2ccc(S(C)(=O)=O)cc2)cc1,113 to 115 °C
9,COC(=O)c1ccc2c(c1)N(C1CC1)C=NS2(=O)=O,191 to 194 °C
10,CCN1CCN(c2cc3c(cc2F)c(=O)c(C(=O)O)c2n3C(C)S2)CC1 (configuration not stated),211 to 214 °C
11,COc1c(SCc2ccco2)ccnc1CO,56 to 58 °C
12,CCOC(=O)c1ncc2[nH]c3cccc(COC)c3c2c1C,133 to 135 °C
13,CCc1nc2c(N)nc3cc(Br)cnc3c2n1CC(C)(C)O,235 to 236 °C
14,CCOC(=O)C(=CNC1CC1)C(=O)c1cc(F)c(F)c(Br)c1F,74 to 76 °C
15,CNC(=NC#N)NCCSCc1nccc(N)n1,189 to 190 °C
16,CC(C)Cc1cc(OCCc2ccsc2)c2[nH]nc(Nc3nccs3)c2c1,150 to 151 °C
17,Cc1c(F)c(F)c(C)c(C(=O)O)c1F,118 to 119 °C
18,COC(COc1cc(-n2ncc(C(F)(F)F)c(C)c2=O)c(F)cc1Cl)OC,86 °C
19,CNC(=O)C(Cc1c[nH]c2ccccc12)NC(=O)C(CC(C)C)C(CC(=O)OC)SC(C)=O (configuration not stated),134 to 136 °C
20,CC(CC(=O)c1ccc2c(c1)C(C)(C)CCC2(C)C)C(=O)O (configuration not stated),165 °C
21,Nc1c(Cl)cnc(OCC(=O)O)c1Cl,200 to 201 °C

row,Structure (SMILES),melting point
1,Cc1c(NC(=O)CC(C)(C)C)c(C)c2c(c1-c1c[nH]cn1)OCC2c1ccc(C(C)C)cc1 (configuration not stated),277 to 279 °C
2,CS(=O)(=O)N1C[C@@H](P(=O)(c2ccccc2)c2ccccc2)C[C@H]1CO,138 to 139 °C
3,COC(=O)C1=CCC(NC(C)=O)C1 (configuration not stated),72 to 74 °C
4,COc1cc(C=NOCc2ccccc2)c([N+](=O)[O-])cc1OC,109 to 113 °C
5,CCCCCCCCCCC(O)C(O)CNCc1ccccc1 (configuration not stated),52.6 to 53 °C
6,COc1ccc(N)c2nccc(Cl)c12,111 to 115 °C
7,CC1=NOC2C3CC(C12)C1C(=O)OC(=O)C31 (configuration not stated),194 to 197 °C
8,O=C1CCCC2=C1C(c1cccnc1)C1=C(CCS1)N2 (configuration not stated),> 250 °C
9,CCOC(=O)C1Cc2ccccc2N1C(=O)c1c(O)c2cc(OC)cc3c2n(c1=O)CCO3 (configuration not stated),135 to 138 °C
10,COc1c(N)nc(-c2ccc(Cl)c(F)c2F)nc1C(=O)NO,192 to 194 °C
11,OC[C@@H](OCc1ccccc1)[C@@H](O)[C@H](O)[C@@H](CO)OCc1ccccc1,116 to 117 °C
12,COc1cnn(C)c(=O)c1-c1c(C)cc(C)cc1C,186 to 192 °C
13,C[C@@H](OC(=O)c1cc([N+](=O)[O-])cc([N+](=O)[O-])c1)[C@@]1(c2ccc(F)cc2F)CO1,104 to 107 °C
14,CC(=O)Nc1cc(C)cc(C=O)n1,202 °C
15,CC(C)c1coc(=O)n1-c1cc(F)c(C#N)cc1F,83 °C
16,O=C(O)C(=NO)C(c1ccc(OCc2ccc3ccccc3n2)cc1)c1ccc(OCc2ccc3ccccc3n2)cc1,183 to 185 °C
17,NC(=O)CCNc1ccc([N+](=O)[O-])cc1OCCO,184 °C
18,Nc1nc2c(ncn2OC(CO)COCP(=O)(O)O)c(=O)[nH]1 (configuration not stated),> 300 °C
19,CCCCOc1nsnc1OC[C@@H]1CCCN1,99 to 100 °C
20,CCCCCCCCCCCCCCCCOCC1=CCCO1,30.5 to 31.5 °C
21,NCCc1ccc(-c2csc(N=C(N)N)n2)o1,156 to 158 °C

row,Structure (SMILES),melting point
1,OC[C@H]1CC[C@H](c2ccc(F)cc2)CC1,65 to 70 °C
2,CC(=O)NN1CCN(C(=O)Cn2c(=O)sc3ccc(Cl)cc32)CC1,284 to 285 °C
3,Cc1cc(-c2nnc3c4ccccc4c(OCc4cncn4C)nn23)no1,236 to 238 °C
4,CCSc1cc(N)c([N+](=O)[O-])cc1N,142 °C
5,N#Cc1c[nH]cc1-c1ccccc1,123 to 125 °C
6,CCCCCC1CCC(CCC2OCC(CCC)CO2)CC1 (configuration not stated),44 °C
7,Cn1c(CO)nc2ccc(Cl)nc21,204 to 210 °C
8,Nc1cccc2c1C1CC3(CCN1C2=O)OCCO3 (configuration not stated),76 °C
9,Cc1csc(Cc2ccc([N+](=O)[O-])cc2)n1,81 to 82 °C
10,CCOc1cc2c(cc1OC)C(c1cnc(OC)nc1)=N[C@@H]1CC[C@@H](O)C[C@H]21,124 °C
11,COc1ccc(CS(=O)(=O)CC(=O)O)cc1[N+](=O)[O-],96 to 98 °C
12,CCN(CC)CCOC(=C1C2CC3C(C2)C13)c1ccccc1,120 to 123 °C
13,C=CCON=Cc1nc(-c2ccc(Cl)c(Cl)c2Cl)cn1S(=O)(=O)N(C)C,87 to 88 °C
14,CN(C(=O)C(F)(F)F)N1CCc2ccccc2C(Oc2ccc(C(F)(F)F)cc2)C1 (configuration not stated),210 to 212 °C
15,C[C@H]1CC[C@H]2C(C)(C)[C@@H](O)CC[C@]23Oc2c(c(O)cc4c2CN(C)C4=O)C[C@]13C,205 to 210 °C
16,CCN(C(=O)OCc1ccccc1)c1c(OC)cc(C(=O)OC)cc1OC,85 to 86 °C
17,CN(C(=O)c1ccccc1)C1CCC(=O)CC1,126 to 128 °C
18,NC(=O)c1c(Cl)c(Cl)c(Cl)c(Cl)c1C(=O)O,113 to 114 °C
19,COC(=O)[C@@H]1C[C@H](O[Si](C)(C)C)C(=O)[C@H]2[C@@]1(C)CC[C@H]1C(=O)O[C@H](c3ccoc3)C[C@]21C,197 to 200 °C
20,O=S(c1nc2ccccc2s1)N1CCOCC1 (configuration not stated),93 to 94 °C

# Now from value to compound:
row,melting point,Structure (SMILES)
1,90 °C,CCN(CCN(C)C)c1ccc(-c2ccnc(Nc3cc(OC)c(OC)c(OC)c3)n2)cn1
2,92 to 94 °C,COC1(c2ccco2)CC2=C(C=C1C(F)(F)F)N(C(=O)Nc1cccnc1)CC2 (configuration not stated)
3,111 to 113 °C,O=C(Nc1ccc(Oc2ccnc(N3CCCC3)n2)c2ccccc12)c1ccccc1N1CCCC(F)C1 (configuration not stated)
4,184 to 185 °C,Cc1cc(C)c2nc(C3CC3)n(Cc3ccc(C4(C(=O)O)CC=CC4)s3)c2n1
5,290 °C,COc1cccc(OC)c1-c1cc(C(=O)NC2(C(=O)O)C3CC4CC(C3)CC2C4)nn1-c1ccc(C#N)c2ccccc12 (configuration not stated)
6,310 °C,O=c1[nH]c2cc(Cl)ccc2c(O)c1-n1cccn1
7,184 to 186 °C,COc1cccc(N2CCN(CCn3c(=O)[nH]c4cscc4c3=O)CC2)c1
8,290 to 291 °C,NC(=O)c1ccc(C(=O)Nc2ccc(-n3nc(C(F)(F)F)cc3C(F)(F)F)cc2)cc1
9,> 200 °C,O=C(NCc1ccc(Cl)cc1)c1cnc2cc(-n3cccc3)ccc2c1O
10,162 to 164 °C,Clc1ccc2c(c1)OCc1cccnc1C2N1CCNCC1 (configuration not stated)
11,86 to 89 °C,O=S1(=O)N(CCBr)c2ccccc2N1c1ccc(Cl)cc1
12,149 °C,CC(C)c1ccc(S(=O)(=O)Nc2ccc(Cl)cc2I)cc1
13,134 to 135 °C,CCC1(CC)c2cc(Br)ccc2-c2ccc(-c3nc4ccccc4s3)cc21
14,157 to 158 °C,CCCCOc1c(CNC(=O)OC(C)(C)C)n(CC(C)C)c(=O)c2ccc(-c3ccco3)cc12
15,142 °C,Cc1cccc(NC(=O)NCCC(=O)N(CC(=O)OC(C)(C)C)c2ccccc2)c1
16,225 °C,CCn1c(C)c(C2(c3c(-c4ccccc4)[nH]c4ccccc34)OC(=O)C(Cl)=C2Cl)c2ccccc21 (configuration not stated)
17,80 to 85 °C,N#Cc1ccc(Nc2nc(Cc3c(Cl)cccc3Cl)cc(NCCN3CCCC3)n2)cc1
18,135 to 140 °C,CN(C)c1ccc(-c2nnc(-c3ccccc3)o2)cc1
19,61 °C,O=S(=O)(Cl)c1ccc(Oc2ccc(Cl)cc2)cc1
20,184 to 187 °C,CCCc1c(C(=O)O)c(=O)cc(-c2ccc(Cl)cc2)n1C

row,melting point,Structure (SMILES)
1,139 to 141 °C,COc1ccc(C(=CC#N)c2ccc(OC)c(OC)c2)cc1NC(C)=O
2,157 to 160 °C,O=c1c2ccccc2c2cnn(-c3ccccc3)c2n1CCCl
3,> 300 °C,COc1ccc(C(=O)Nc2c(Cl)cncc2Cl)c2c1OCC2CC(=O)Nc1c(Cl)cncc1Cl (configuration not stated)
4,108 °C,Clc1ccc(COC(CCCn2ccnc2)c2ccc(Cl)cc2Cl)c(Cl)c1 (configuration not stated)
5,207 °C,O=C1NC(Cc2c[nH]c3ccccc23)C(CCc2cc(C(F)(F)F)cc(C(F)(F)F)c2)N1CCN1CCOCC1 (configuration not stated)
6,70 °C,ClCOc1ccc2ccccc2c1
7,136 to 137 °C,CN(C[C@@H]1C[C@H]1COc1ccc(C(=O)c2ccc(Br)cc2)cc1)C1CC1 (racemic)
8,232 to 233 °C,Cn1c(=O)[nH]c(=O)n(-c2ccc(Sc3nc4ccc(Cl)cc4s3)cc2)c1=O
9,135 to 137 °C,CC(C)(C)OC(=O)c1cc(-c2cccc(F)c2)c(=O)n2c1-c1sccc1CC2
10,203 to 209 °C,COc1cc(Nc2ncnc3cc(OCC4CCCCO4)c(OC)cc23)c(OC)cc1Cl (configuration not stated)
11,232 to 233 °C,Cc1cc(-c2nc3cccnn3c2-c2ccnc(NC(=O)NC(C)C)c2)ccc1F
12,99 to 100 °C,CCCCNC(=O)Oc1ccc(C(O)(CC)c2cccc(C(F)(F)F)c2)cc1 (configuration not stated)
13,158 °C,CCOC(=O)c1ccc2nc(CC3CCN(c4ccc(Cl)nn4)CC3)sc2c1
14,110 to 111 °C,O=C(O)CCCOc1ccc(Nc2ccccc2)cc1
15,117 to 121 °C,CN(C)c1ccc(C(=O)OC2=C([C@H]3CC[C@H](c4ccc(Cl)cc4)CC3)C(=O)c3ccccc3C2=O)cc1
16,160 to 161 °C,CSc1ccc(-c2nn(Cc3cccnc3)c(=O)cc2-c2ccc(F)cc2)cc1
17,216 to 217 °C,CCCCc1cc2c(=O)n3cc(C#N)ccc3nc2s1
18,108 to 116 °C,Cc1nc2c(-c3cccc(N4CCN(CCO)CC4)c3)cnn2c(N)c1-c1cccc(Cl)c1
19,215 to 220 °C,O=C(O)Cc1c(C(=O)c2ccc(Cl)cc2)[nH]c2cc(Cl)c(F)cc12
20,245 to 246 °C,Cn1cc(C2=C(c3cn(C)c4cc(CO)ccc34)C(=O)NC2=O)c2ccccc21
